# Test: RiboGreen assay of siRNA encapsulation efficiency, in vivo formulations of Lipid-Based Particles
# Format: physicochemical
# Settings: lipid:siRNA 25:1
# Method: RNA concentration and encapsulation efficiency were determined using a Quant-iT® Ribogreen RNA reagent and kit available from Invitrogen. The siRNA was released from the Lipid-Based Particle using one of the following reagents: ethanol, Triton X-100, or phenol/chloroform. The siRNA concentration is quantified using fluorescent reading at 480 nm/520 nm.
# The lipid solution was prepared (10 mg/ml) by dissolving the lipid in 200 proof ethanol. The lipid mixture solution is prepared according to the above composition in Table 5.
# An siRNA (TetR_ODC—12, G.G.G.G.A.A.A.G.C.U.G.G.C.A.A.G.A.U.U.U.U SEQ ID NO: 1) (ThermoFisher) solution is prepared in a concentration of 10 mg/ml by dissolving 10 mg siRNA in 1 ml of DNAse/RNAse-free distilled water.
# A round bottom flask was submerged into a 65° C. water bath. Citrate buffer (37.5 ml) of pH 4.0 was pipetted into the flask. The solution was stirred by a magnetic stirring bar at a speed of 900 rpm. Both the pH 4.0 citrate buffer and the lipid solution were pre-warmed in the 65° C. water bath for about 3 minutes. A siRNA solution (0.5 ml) was pipetted into the pH 4.0 citrate buffer. The 12.5 ml lipid mixture solution was injected through a 27 gauge needle into the citrate buffer in about 30 seconds. The needle tip was inserted into the solution during the injection. The resulting solution was stirred for 5 minutes at a speed of 900 rpm. The flask was pulled up from the water bath and a 50 ml pH 7.4 PBS buffer was added into the flask. The final solution was further mixed at a speed of 900 rpm for 5 minutes. For the diafiltration process, a dialysis filter (Millipore, 100K, Cat#PXB100C50) was used to remove ethanol in the above solution. When the volume was reduced to 20 ml during the initial diafiltration, 20 ml of pH 7.4 PBS was added to the sample solution. The diafiltration was continued until the volume was reduced to 20 ml. The diafiltration process was repeated 4 times. The volume of the sample solution was reduced to about 12 ml and pH 7.4 PBS was added to make the final volume of 15 ml. The 15 ml solution was filtered sequentially through the 0.45 and 0.22 μm sterile PVDF membrane filters (Millipore) and immediately transferred into a sterile vial.
compound,measurement,setting,value
"CCCCC/C=C\C/C=C\CCCCCCCCOCC(CCN1CCCC1)OCCCCCCCC/C=C\C/C=C\CCCCC (stereo not shown) [Example 24, 1-{3,4-bis[(9Z,12Z)-octadeca-9,12-dienyloxy]butyl}pyrrolidine]",% Encapsulation Efficiency,in vivo formulation A: Cationic lipid/Example 73/DSPC/Chol 45/10/15/30 wt %,96.6%
same,% Encapsulation Efficiency,in vivo formulation B: Cationic lipid/PEG-cholesterol/DSPC/Chol 45/10/15/30 wt %,89.3%
same,% Encapsulation Efficiency,in vivo formulation C: Cationic lipid/Pal-PEG-Cera/DSPC/Chol 45/10/15/30 wt %,97.8%
same,% Encapsulation Efficiency,in vivo formulation D: Cationic lipid/Example 66/DSPC/Chol 45/10/15/30 wt %,97.0%
same,% Encapsulation Efficiency,in vivo formulation E: Cationic lipid/Example 53/DSPC/Chol 45/10/15/30 wt %,79.3%
same,% Encapsulation Efficiency,in vivo formulation F: Cationic lipid/Example 54/DSPC/Chol 45/10/15/30 wt %,96.1%
same,% Encapsulation Efficiency,in vivo formulation G: Cationic lipid/Example 55/DSPC/Chol 45/10/15/30 wt %,96.7%
same,% Encapsulation Efficiency,in vivo formulation H: Cationic lipid/PEG-DMPE/DSPC/Chol 45/10/15/30 wt %,97.3%
same,% Encapsulation Efficiency,in vivo formulation I: Cationic lipid/PEG-DPPE/DSPC/Chol 45/10/15/30 wt %,92%
same,% Encapsulation Efficiency,in vivo formulation J: Cationic lipid/PEG-DSPE/DSPC/Chol 45/10/15/30 wt %,100%
same,% Encapsulation Efficiency,in vivo formulation K: Cationic lipid/PEG-DMG/DSPC/Chol 45/10/15/30 wt %,99.5%
same,% Encapsulation Efficiency,in vivo formulation L: Cationic lipid/PEG-DPG/DSPC/Chol 45/10/15/30 wt %,90%
same,% Encapsulation Efficiency,in vivo formulation M: Cationic lipid/PEG-DSG/DSPC/Chol 45/10/15/30 wt %,100%
same,% Encapsulation Efficiency,in vivo formulation NN: Cationic lipid/Example 74/DSPC/Chol 45/10/15/30 wt %,97.3%
same,% Encapsulation Efficiency,in vivo formulation OO: Cationic lipid/Example 75/DSPC/Chol 45/10/15/30 wt %,99.5%
same,% Encapsulation Efficiency,in vivo formulation P: Cationic lipid/PEG-DSPE/DOPE/Chol 45/10/15/30 wt %,97%
same,% Encapsulation Efficiency,in vivo formulation PP: Cationic lipid/Example 73/Chol 45/10/45 wt %,97.4%
same,% Encapsulation Efficiency,in vivo formulation Q: Cationic lipid/PEG-DSPE/DOPC/Chol 45/10/15/30 wt %,97%
same,% Encapsulation Efficiency,in vivo formulation R: Cationic lipid/PEG-DSPE/SPC/Chol 45/10/15/30 wt %,97%
